Data taken from patent US9675568B2, “Pharmaceutical compositions” (Symrise AG, priority 2012, dated 2017).

Tested on: cell line of human leucemic granulocytes (PMN)
Assay: Respiratory burst: zymosan-triggered release of superoxide anions (ROS) measured with Luminol, with cell numbers
Type: cell-based
Conditions: for Cell numbers / Released ROS: compared with the standard (=100), average of triplicate determination; for Released ROS: zymosan-triggered, Luminol
Source text: In the course of cutaneous inflammations, leukocytes, such as, for example, the polymorphonuclear neutrophilic granulocytes (PMN), are stimulated by peptides, such as, for example, cytokines, to emit messenger substances, such as, for example, leucotriene, which are released from activated or necrotic cells in the dermis. These activated PMNs release not only proinflammatory cytokins, leucotrienes and proteases, but also ROS, such as, for example, superoxides and hypochlorite anions, which have the task of destroying pathogenic microbes or fungi which have penetrated it. This activity of the PMNs during inflammation is known as respiratory burst and can lead to additional tissue damage. To investigate to what extent the amide is able to prevent or reduce respiratory burst, a cell line of human leucemic granulocytes of these PMNS was incubated together with the test substances at 37° C. from 5% by volume of CO2. After the respiratory burst had been triggered by adding a yeast extract (zymosan) to the cell solution, the release of superoxide anions was determined by means of their reaction with Luminol. The values given are the cell numbers and the amount of released ROS in relative percentages compared with the standard as an average value of a measurement series with triplicate determination.

Q: Which results are given for `COc1ccc(NC(=O)C2CC(C)CCC2C(C)C)cc1` (centres unmarked) [Menthane carboxylic acid-N-(4-methoxy-phenyl)-amide]?
A: Cell numbers (0.001 % b.w. active): 104 ± 1 relative percentages; Released ROS (0.001 % b.w. active): 37 ± 25 relative percentages; Cell numbers (0.01 % b.w. active): 94 ± 3 relative percentages; Released ROS (0.01 % b.w. active): 9 ± 4 relative percentages; Cell numbers (0.1 % b.w. active): 93 ± 1 relative percentages; Released ROS (0.1 % b.w. active): 8 ± 4 relative percentages; Damage to the granulocytes (summary in words of Table 1): without damaging the granulocytes; Effect on the respiratory burst of human granulocytes (summary in words of Table 1): strong inhibiting effect
